# Measurements: patent publication US4174406A, “Terpenylaminoalkanol fish toxicants” (priority 1977, dated 1979)
# Tests used:
# [1] = test system: Rainbow trout; assay: Laboratory fish toxicity test (Table 1); format: in vivo, Salmo gairdneri; details: tech, 12 C, soft water
# Procedure: (§1) Fish were obtained from state and federal hatcheries and maintained prior to testing by a trained fish culturist. Fish of total length 2-5 cm were used in laboratory tests while for outdoor tests small fish (4-6 cm in length) and larger carp and buffalo (Ictiobus cyprinellus) were used.
# (§2) In all tests 10 fish of each were exposed to selective concentrations of the toxicant. Mortalities were observed and recorded at 1,2 and 6 hours on the first day and once daily thereafter, during 96 hour exposure.
# (§3) Laboratory tests were also conducted in soft water 12° C. wherein the toxicant was evaluated against fifteen species of fish including both cold and warm water varieties. In Table 1, the LC 50 toxicity values for N-(2-hydroxyethyl) digeranylamine is shown for various species. LC50 is defined as the amount (mg/liter) of toxicant required to kill 50 percent of the particular fish species at 95% confidence interval.
# [2] = test system: Walleye; assay: Laboratory fish toxicity test (Table 1); format: in vivo, Stizostedion vitreum; details: tech, 12 C, soft water
# Procedure: as §1, §2, §3
# [3] = test system: Walleye; assay: Outdoor plastic pool test (Table 3); format: in vivo, Sitzostedion vitreum; details: for % kill: 96 hour, 50% formulation (hydrochloride salt)
# Procedure: (§4) N-(2-hydroxyethyl) digeranylamine was tested as a selective fish toxicant in outdoor pools stocked with various fish species and lined with black plastic using 50% water soluble formulations (hydrochloride salt). The formulation was added to each of four pools of 4,000-liter capacity at concentrations of 0.10, 0.15, 0.20, and 0.30 mg/liter. Another pool containing the same number, size, and species of fish served as a control. The test water had algal blooms, a pH of about 8.5, and a total hardness of about 200 mg/liter as CaCo3. The temperature was cool enough (15°-16°C.) to permit the use of trout.
# as §1, §2
# (§5) Outdoor pool tests were conducted using 50% formulation of the toxicant N-(2-hydroxyethyl) digeranylamine as indicated in Example 8. […] If selective control of white sucker and common carp is desired in an environment which includes rainbow trout, one should employ an effective concentration of toxicant which is at least as great as 0.05 mg/liter but less than 0.1 mg/liter. As a practical fishery practice in the northern United States and Canada, rainbow trout are not usually stocked in bodies of water containing the common carp species; the habitat conditions including water temperature and available oxygen of these species are usually quite different. Common carp and rainbow trout have quite different oxygen and temperature requirements and these differences generally preclude both species cohabitating under natural conditions. In this case the useful range to control common carp and white sucker can be much broader, i.e. 0.1 to 0.3 mg/liter.
# [4] = test system: Aquatic olgochaete; assay: Static bioassay in invertebrates (Table 2); format: in vivo; details: Tubifex tubifex, tech, 17 C, limed spring water 22-36 mg/l hardness
# Procedure: (§6) The effect of the various toxicants on common invertebrate species was determined in a static test conducted 17° C. The invertebrates tested were collected from natural populations or purchased from commercial suppliers. They were held in soft water in fiberglass tanks in the laboratory or in outdoor plastic swimming pools. Mortality was observed during holding, and only healthy organisms were used for the toxicity tests. At least 10 organisms of nine species were exposed to each concentration in static tests.
# [5] = test system: Seed shrimp or ostracod; assay: Static bioassay in invertebrates (Table 2); format: in vivo; details: tech, 17 C, limed spring water 22-36 mg/l hardness
# Procedure: as §6
# [6] = test system: Snail (Pleurecera sp.); assay: Static bioassay in invertebrates (Table 2); format: in vivo; details: tech, 17 C, limed spring water 22-36 mg/l hardness
# Procedure: as §6
# [7] = test system: Snail (Physa sp.); assay: Static bioassay in invertebrates (Table 2); format: in vivo; details: tech, 17 C, limed spring water 22-36 mg/l hardness
# Procedure: as §6
# [8] = test system: Water flea; assay: Static bioassay in invertebrates (Table 2); format: in vivo; details: Daphnia magna, tech, 17 C, limed spring water 22-36 mg/l hardness
# Procedure: as §6
# [9] = test system: Largemouth buffalo; assay: Outdoor plastic pool test (Table 3); format: in vivo, Ictibous cyprinellus; details: 96 hour, 50% formulation (hydrochloride salt)
# Procedure: as §4, §1, §2, §5
# [10] = test system: Bluegill; assay: Outdoor plastic pool test (Table 3); format: in vivo, Lepomis macrochirus; details: for % kill: 96 hour, 50% formulation (hydrochloride salt)
# Procedure: as §4, §1, §2, §5
# [11] = test system: Green sunfish; assay: Laboratory fish toxicity test (Table 1); format: in vivo, Lepomis cyanellus; details: tech, 12 C, soft water
# Procedure: as §1, §2, §3
# [12] = test system: Rainbow trout; assay: Outdoor plastic pool test (Table 3); format: in vivo, Salmo gairdneri; details: 96 hour; for % kill: 50% formulation (hydrochloride salt)
# Procedure: as §4, §1, §2, §5
# [13] = test system: Brown trout; assay: Laboratory fish toxicity test (Table 1); format: in vivo, Salmo trutta; details: tech, 12 C, soft water
# Procedure: as §1, §2, §3
# [14] = test system: Fingernail clam; assay: Static bioassay in invertebrates (Table 2); format: in vivo, Sphaerium sp.; details: 96 hours, tech, 17 C, limed spring water 22-36 mg/l hardness
# Procedure: as §6
# [15] = test system: Black bullhead; assay: Outdoor plastic pool test (Table 3); format: in vivo, Ictalurus melas; details: for % kill: 96 hour, 50% formulation (hydrochloride salt)
# Procedure: as §4, §1, §2, §5
# [16] = test system: Chinook, coho salmon, rainbow trout, goldfish, fathead, minnow, banded killfish, and walleye; assay: Relative resistance of fish species in laboratory tests; format: in vivo; details: soft water, 12 C
# Procedure: as §3
# [17] = test system: Dragonfly naiad; assay: Static bioassay in invertebrates (Table 2); format: in vivo, Macromia sp.; details: 96 hours, tech, 17 C, soft reconstituted water 42 mg/l hardness
# Procedure: as §6
# [18] = test system: Coho salmon; assay: Laboratory fish toxicity test (Table 1); format: in vivo, Oncorhynchus kisutch; details: tech, 12 C, soft water
# Procedure: as §1, §2, §3
structure (smiles),measurement,setting,value
CC(C)=CCC/C(C)=C/CN(C/C=C(\C)CCC=C(C)C)CCO [N-(2-hydroxyethyl) digeranylamine],LC50,[1]; 3 hours,0.220 mg/L
same,LC50,[1]; 6 hours,0.189 mg/L
same,LC50,[1]; 24 hours,0.187 mg/L
same,LC50,[1]; 96 hours,0.136 mg/L
same,LC50,[2]; 3 hours,2.78 mg/L
same,LC50,[2]; 6 hours,1.03 mg/L
same,LC50,[2]; 24 hours,0.346 mg/L
same,LC50,[2]; 96 hours,0.239 mg/L
same,% kill,[3]; 0.10 mg/l,0%
same,% kill,[3]; 0.15 mg/l,10%
same,% kill,[3]; 0.20 mg/l,0%
same,% kill,[3]; 0.30 mg/l,0%
same,survival (in words),"[3]; walleye, 0.3 mg/liter, 50% formulation",complete survival
same,LC50,[4]; 1 hour,4.3 µg/mL
same,LC50,[4]; 3 hour,2.64 µg/mL
same,LC50,[4]; 6 hours,2.35 µg/mL
same,LC50,[4]; 28 hours,0.28 µg/mL
same,LC50,[4]; 96 hours,0.054 µg/mL
same,LC50,[5]; 6 hours,3 µg/mL
same,LC50,[5]; 28 hours,1 µg/mL
same,LC50,[5]; 96 hours,0.32 µg/mL
same,LC50,[6]; 28 hours,10.3 mg/L
same,LC50,[6]; 96 hours,2.68 mg/L
same,LC50,[7]; 1 hour,6.30 mg/L
same,LC50,[7]; 3 hour,2.25 mg/L
same,LC50,[7]; 6 hours,0.945 mg/L
same,LC50,[7]; 28 hours,0.580 mg/L
same,LC50,[7]; 96 hours,0.460 mg/L
same,LC50,[8]; 1 hour,8 µg/mL
same,LC50,[8]; 3 hour,3.95 µg/mL
same,LC50,[8]; 6 hours,3 µg/mL
same,LC50,[8]; 28 hours,0.8 µg/mL
same,LC50,[8]; 96 hours,0.16 µg/mL
same,% kill,[9]; 0.10 mg/l,0%
same,% kill,[9]; 0.15 mg/l,20%
same,% kill,[9]; 0.20 mg/l,20%
same,% kill,[9]; 0.30 mg/l,100%
same,% kill,[10]; 0.10 mg/l,0%
same,% kill,[10]; 0.15 mg/l,0%
same,% kill,[10]; 0.20 mg/l,0%
same,% kill,[10]; 0.30 mg/l,0%
same,survival (in words),"[10]; bluegill, 0.3 mg/liter, 50% formulation",complete survival
same,LC50,[11]; 24 hours,0.640 mg/L
same,LC50,[11]; 96 hours,0.640 mg/L
same,% kill,[12]; 0.10 mg/l,100%
same,% kill,[12]; 0.15 mg/l,100%
same,% kill,[12]; 0.20 mg/l,100%
same,% kill,[12]; 0.30 mg/l,100%
same,kill (in words),"[12]; above 0.10 mg/l, 50% formulation",completely eliminated at all concentrations above 0.10 mg/l
same,LC50,[13]; 3 hours,0.0955 mg/L
same,LC50,[13]; 6 hours,0.0742 mg/L
same,LC50,[13]; 24 hours,0.0700 mg/L
same,LC50,[13]; 96 hours,0.0647 mg/L
same,LC50,[14],11.5 mg/L
same,% kill,[15]; 0.10 mg/l,0%
same,% kill,[15]; 0.15 mg/l,0%
same,% kill,[15]; 0.20 mg/l,0%
same,% kill,[15]; 0.30 mg/l,0%
same,survival (in words),"[15]; black bullhead, 0.3 mg/liter, 50% formulation",complete survival
same,resistance relative to carp or white suckers,[16],more resistant to the toxicant than carp (Caprinus carpio) or white suckers (Castostmus commersoni)
same,LC50,[17],2.00 mg/L
same,LC50,[18]; 3 hours,0.320 mg/L
same,LC50,[18]; 6 hours,0.240 mg/L
same,LC50,[18]; 24 hours,0.200 mg/L
same,LC50,[18]; 96 hours,0.142 mg/L
